According to patent US20050192279A1, “Pyridazinones as antagonists of alpha4 integrins” (priority 2004, published 2005):

Key:
TNBS induced colitis [1] = test: Trinitrobenzenesulfonic acid (TNBS) Induced Colitis, rats; type: in vivo, Male Wistar rats; conditions: rat
Text: In Vivo Model: Trinitrobenzenesulfonic acid (TNBS) Induced Colitis The TNBS model of experimental colitis (Bobin-Dubigeon, C., Collin, X., Grimaud, N., Robert, J-M., Guillaume Le Baut, G., and Petit, J-Y. Effects of tumour necrosis factor-a synthesis inhibitors on rat trinitrobenzene sulphonic acid-induced chronic colitis. Eur. J. […] These symptomatic signs in the above—mentioned models are similar to what occur in human colitis. Male Wistar rats (200-250 g) are inoculated with 500 microliters of a solution of 10 to 20 mg of TNBS in 30% ethanol delivered intracolonically via catheter or ball-tipped gavage needle to the 8th cm from the anus. When Balb/c female mice (8-12 weeks of age) were used, the inoculation volume was 50 microliters containing 2-3 mg of TNBS in 30% ethanol delivered intracolonically via catheter or ball-tipped gavage needle to the 4th cm from the anus. During the ensuing 7 days, test animals were administered a preparation of an experimental compound. This material may be administered orally, subcutaenously or intraperitoneally, once or twice daily. At the end of this period, the animals were euthanized and their colons were collected for further analysis. Among the parameters analyzed were the length of the colon starting from the anus to the top of the cecum, the weight of the colon, the consistency of any stools found within the colon, the presence or absence of intraperitoneal adhesions on the serosal surfacr of the intestin, and the gross macroscopic appearance of the colon. […] In rats, the distal colon between the 5th and the 8th centimeter is dissected and placed in 10% neutral buffered formalin for later histological analysis. In mice, the 1st to the 4th cm was collected for histological analyses. For the following parameters—colon length, colon weight, stool consistency and appearance and macroscopic damage—a scoring system was used to describe the changes. The four scores for each animal were added to provide a Total Score. […] For the presence of blood in stool, one point was added to scores <3. […] Histological analyses of tissues consisted of staining paraffin-embedded tissue sections with hematoxylin-eosin dye. Epithelial damage scores were determined as the fraction of the tissue section showing damaged epithelium. […] Statistic analyses for these experiments performed with Graphpad Prism 4.0, using ANOVA, with Dunnets or Bonferroni's multiple comparisons test.

TNBS induced colitis [2] = test: Trinitrobenzenesulfonic acid (TNBS) Induced Colitis, mice; type: in vivo, Balb/c female mice; conditions: mouse
Text: In Vivo Model: Trinitrobenzenesulfonic acid (TNBS) Induced Colitis
The TNBS model of experimental colitis (Bobin-Dubigeon, C., Collin, X., Grimaud, N., Robert, J-M., Guillaume Le Baut, G., and Petit, J-Y. Effects of tumour necrosis factor-a synthesis inhibitors on rat trinitrobenzene sulphonic acid-induced chronic colitis. Eur. J. Pharmacology, 431: 103-110, 2001), is characterized by shrinkage of the colon, intraperitoneal serosal adhesions, severe wounding and inflammatory damage, diarrhea, a continuous pattern of mucosal epithelial damage in the distal colon with infiltration of inflammatory cells. These symptomatic signs in the above—mentioned models are similar to what occur in human colitis.
Male Wistar rats (200-250 g) are inoculated with 500 microliters of a solution of 10 to 20 mg of TNBS in 30% ethanol delivered intracolonically via catheter or ball-tipped gavage needle to the 8th cm from the anus. When Balb/c female mice (8-12 weeks of age) were used, the inoculation volume was 50 microliters containing 2-3 mg of TNBS in 30% ethanol delivered intracolonically via catheter or ball-tipped gavage needle to the 4th cm from the anus. During the ensuing 7 days, test animals were administered a preparation of an experimental compound. This material may be administered orally, subcutaenously or intraperitoneally, once or twice daily. […] Among the parameters analyzed were the length of the colon starting from the anus to the top of the cecum, the weight of the colon, the consistency of any stools found within the colon, the presence or absence of intraperitoneal adhesions on the serosal surfacr of the intestin, and the gross macroscopic appearance of the colon. The latter is scored for length and severity of inlfammatory damage using a 10 point score. […]
Histological analyses of tissues consisted of staining paraffin-embedded tissue sections with hematoxylin-eosin dye. Epithelial damage scores were determined as the fraction of the tissue section showing damaged epithelium. Scores were determined as follows: 0=no damage; 1=<⅓ damaged, 2=⅓ to <⅔ damaged, 3=>⅔ damaged. […]

COc1cnn(C)c(=O)c1-c1ccc(C[C@H](NC(=O)c2c(Cl)cccc2Cl)C(=O)O)cc1 [Cpd 17]
% Inhibition of Epithelial Damage Score (TNBS induced colitis [1]; 10 mg/kg sc bid): −5.822% | % Inhibition of Total Macroscopic Score (TNBS induced colitis [1]; 10 mg/kg sc bid): −1.638% | % Inhibition of Epithelial Damage Score (TNBS induced colitis [1]; 30 mg/kg sc bid): 8.5% | % Inhibition of Total Macroscopic Score (TNBS induced colitis [1]; 30 mg/kg sc bid): −4.117% | % Inhibition of Total Macroscopic Score (TNBS induced colitis [2]; 10 mg/kg sc bid): 21.30% | % Inhibition of Total Macroscopic Score (TNBS induced colitis [2]; 30 mg/kg sc bid): 25.5% | % Inhibition of Total Macroscopic Score (TNBS induced colitis [2]; 60 mg/kg sc bid): −17%
